The target in one assay is CDK4 (Homo sapiens (Human), UniProt P11802). The assay can be described thus: Phospho-Serine 795 Rb ELISA assay in JEKO-1 cells. The settings on record: overnight treatment, phospho-Rb S795, read-out: CDK4 pRB S795 ELISA JEKO-1 cells IC50. Format: cell-based. On the procedure: (§1) JEKO-1 or MV4-11 cells were seeded at 15,000 or 20,000 cells per well, respectively, in 100 μL growth media and allowed to incubate at 37° C. with 5% CO2 overnight. The following day, compounds were serially diluted from a 10 mM top dose for an 11-point 3-fold dilution curve in DMSO. Compounds were intermediately diluted 1:200 into growth media prior to diluting 1:5 on cells for final concentration 10 μM to 0.1 nM in 0.1% DMSO on cells. JEKO-1 and MV4-11 cells were treated were treated overnight, at 37° C. with 5% CO2. Cells were lysed in 100 μL/well CST lysis buffer on ice and transferred to pre-coated and blocked anti-phospho-Ser795 Rb ELISA plates for overnight incubation at 4° C. Plates were washed to remove residual, unbound cellular proteins and total Rb detection antibody added for 90 minutes at 37° C. Following wash to remove unbound total Rb antibody, the HRP tagged antibody was allowed to bind for 30 minutes at 37° C. Following wash to remove unbound HRP antibody, Glo Substrate Reagent was added and incubated protected from light for 5 to 10 minutes. Plates were read in luminescence mode and IC50 values calculated.
A general note: In an ELISA, binding on a coated surface is turned into a signal by an enzyme label.

Another assay addresses CDK6 (Homo sapiens (Human), UniProt Q00534). Nature of the assay: Phospho-Serine 795 Rb ELISA assay in MV4-11 cells. Format: cell-based. The following applies: overnight treatment, phospho-Rb S795, read-out: CDK6 pRB S795 ELISA MV4-11 cells IC50. On the procedure:
as §1

The next assay addresses CDK4/Cyclin D1 (Homo sapiens (Human), UniProt P11802). Nature of the assay: CDK4/Cyclin D1 mobility shift assay. Format: biochemical. The settings on record: activated CDK4/Cyclin D1, 3.5 mM ATP, Morrison fit; read-out: CDK4D1 Ki.
For a further assay, the target named is CDK6/Cyclin D3 (Homo sapiens (Human), UniProt Q00534). Nature of the assay: CDK6/Cyclin D3 mobility shift assay. Format: biochemical. The settings on record: activated CDK6/Cyclin D3, 3.5 mM ATP, Morrison fit; read-out: CDK6_D3 Ki.
Chain of CDK6/Cyclin D3 (Q00534 whole entry): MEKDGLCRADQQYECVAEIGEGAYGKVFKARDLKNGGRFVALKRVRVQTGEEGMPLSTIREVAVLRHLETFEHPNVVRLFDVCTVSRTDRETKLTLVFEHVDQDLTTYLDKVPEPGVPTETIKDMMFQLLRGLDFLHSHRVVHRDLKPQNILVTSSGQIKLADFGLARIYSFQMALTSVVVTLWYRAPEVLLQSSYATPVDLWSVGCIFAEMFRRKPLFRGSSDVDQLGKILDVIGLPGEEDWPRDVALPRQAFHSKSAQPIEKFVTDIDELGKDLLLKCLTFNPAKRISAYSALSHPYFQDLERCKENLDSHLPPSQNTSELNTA
Chain of CDK6/Cyclin D3 (P30281 whole entry partner): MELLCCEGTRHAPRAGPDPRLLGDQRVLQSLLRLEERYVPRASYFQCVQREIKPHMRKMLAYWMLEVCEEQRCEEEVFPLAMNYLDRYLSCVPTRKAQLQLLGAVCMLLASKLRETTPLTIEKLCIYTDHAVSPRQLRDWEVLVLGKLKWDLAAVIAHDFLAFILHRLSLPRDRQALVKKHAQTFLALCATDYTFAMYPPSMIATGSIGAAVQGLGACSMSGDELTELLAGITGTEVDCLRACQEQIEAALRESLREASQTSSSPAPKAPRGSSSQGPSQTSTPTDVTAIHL

Chain of CDK6 (Q00534 whole entry): as the sequence (Q00534 whole entry) above
Chain of CDK6 (P30281 whole entry partner): as the sequence (P30281 whole entry partner) above
Chain of CDK4/Cyclin D1 (P11802 whole entry): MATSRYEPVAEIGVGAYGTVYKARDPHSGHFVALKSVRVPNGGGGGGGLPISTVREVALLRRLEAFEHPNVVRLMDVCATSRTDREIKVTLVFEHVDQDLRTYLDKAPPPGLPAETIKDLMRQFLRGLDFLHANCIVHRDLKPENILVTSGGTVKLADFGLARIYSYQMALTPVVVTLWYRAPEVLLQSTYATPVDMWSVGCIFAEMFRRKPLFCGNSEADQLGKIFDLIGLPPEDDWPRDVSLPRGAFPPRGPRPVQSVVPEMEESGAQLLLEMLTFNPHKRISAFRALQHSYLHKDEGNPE
Chain of CDK4/Cyclin D1 (P24385 whole entry partner): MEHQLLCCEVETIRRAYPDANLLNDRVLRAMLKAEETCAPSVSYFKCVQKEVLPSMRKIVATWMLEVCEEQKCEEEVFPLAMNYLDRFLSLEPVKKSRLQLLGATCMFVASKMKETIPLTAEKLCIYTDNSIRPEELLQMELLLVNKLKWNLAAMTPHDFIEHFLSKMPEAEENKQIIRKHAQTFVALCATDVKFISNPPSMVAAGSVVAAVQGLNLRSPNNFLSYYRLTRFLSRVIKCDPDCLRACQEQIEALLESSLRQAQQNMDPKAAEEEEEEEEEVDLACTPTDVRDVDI
Chain of CDK4 (P11802 2-303): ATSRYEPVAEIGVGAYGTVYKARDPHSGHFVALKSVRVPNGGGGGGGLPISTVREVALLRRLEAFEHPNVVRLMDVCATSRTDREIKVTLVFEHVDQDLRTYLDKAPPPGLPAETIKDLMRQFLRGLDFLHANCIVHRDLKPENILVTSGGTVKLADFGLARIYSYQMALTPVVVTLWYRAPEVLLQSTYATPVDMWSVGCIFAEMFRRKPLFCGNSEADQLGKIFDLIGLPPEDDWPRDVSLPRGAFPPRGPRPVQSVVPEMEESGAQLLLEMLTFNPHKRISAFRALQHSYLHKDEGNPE
Chain of CDK4 (P24385 whole entry partner): as the sequence (P24385 whole entry partner) above

The term IC50 denotes the concentration that gives 50% inhibition. Usually Ki stands for a measure of affinity in units of concentration, obtained from inhibition or displacement. For `CC(C)NCc1nc2c(F)cc(-c3nc(N[C@@H]4CCN(S(C)(=O)=O)C[C@H]4O)ncc3Cl)cc2n1C(C)C` [Example H10, (3R,4R)-4-({5-chloro-4-[4-fluoro-1-(propan-2-yl)-2-{[(propan-2-yl)amino]methyl}-1H-benzimidazol-6-yl]pyrimidin-2-yl}amino)-1-(methanesulfonyl)piperidin-3-ol], the IC50 at CDK4 turned out to be 14.9 nM; on CDK6, 51.1 nM. Moreover, the inhibition constant (Ki) on CDK4/Cyclin D1 turned out to be 0.5 nM; on CDK6/Cyclin D3 it was 16.4 nM.
`CC(C)n1c(CN(C)C)nc2c(F)cc(-c3nc(N[C@@H]4CCOC[C@H]4O)ncc3Cl)cc21` [Example H02, 1,5-anhydro-3-[(5-chloro-4-{2-[(dimethylamino)methyl]-4-fluoro-1-(propan-2-yl)-1H-benzimidazol-6-yl}pyrimidin-2-yl)amino]-2,3-dideoxy-D-threo-pentitol]: the IC50 at CDK4 amounted to 52.1 nM; at CDK6 it was 118 nM. Moreover, the Ki amounted to 0.8 nM on CDK4/Cyclin D1 and 20 nM at CDK6/Cyclin D3.
The matching figures for `CC(C)(CN)n1cnc2c(F)cc(-c3nc(N[C@@H]4CCOC[C@H]4O)ncc3Cl)cc21` [Example A51, 3-({4-[1-(1-amino-2-methylpropan-2-yl)-4-fluoro-1H-benzimidazol-6-yl]-5-chloropyrimidin-2-yl}amino)-1,5-anhydro-2,3-dideoxy-D-threo-pentitol]: 245 nM, 1530 nM, 2 nM and 55.7 nM.
The matching figures for `COC(=O)N1CC[C@@H](Nc2ncc(F)c(-c3cc(F)c4nc(C)n(C(C)C)c4c3)n2)[C@H](O)C1` [Example F01, methyl (3R,4R)-4-({5-fluoro-4-[4-fluoro-2-methyl-1-(propan-2-yl)-1H-benzimidazol-6-yl]pyrimidin-2-yl}amino)-3-hydroxypiperidine-1-carboxylate]: 114 nM, 576 nM, 0.8 nM and 14.6 nM.
For `CCc1nc2c(F)cc(-c3nc(N[C@@H]4CCN(S(C)(=O)=O)C[C@H]4O)ncc3Cl)cc2n1C1COC1` [Example A71, (3R,4R)-4-({5-chloro-4-[2-ethyl-4-fluoro-1-(oxetan-3-yl)-1H-benzimidazol-6-yl]pyrimidin-2-yl}amino)-1-(methanesulfonyl)piperidin-3-ol], the half-maximal inhibitory concentration (IC50) on CDK4 turned out to be 94.9 nM; on CDK6 it was 287 nM. For the same compound, the Ki is 0.8 nM on CDK4/Cyclin D1 and 11.4 nM on CDK6/Cyclin D3.
In the same order, the values of `C[C@H](O)c1nc2c(F)cc(-c3nc(N[C@@H]4CCOC[C@H]4O)ncc3Cl)cc2n1C(C)(C)C` [Example A61, 1,5-anhydro-3-[(4-{1-tert-butyl-4-fluoro-2-[(1S)-1-hydroxyethyl]-1H-benzimidazol-6-yl}-5-chloropyrimidin-2-yl)amino]-2,3-dideoxy-D-threo-pentitol] are 11.4 nM, 33.5 nM, 0.2 nM and 2.6 nM.
Turning to `CC(C)n1c(C(F)F)nc2c(F)cc(-c3nc(N[C@@H]4CCN(S(C)(=O)=O)C[C@H]4O)ncc3Cl)cc21` [Example A69, (3R,4R)-4-({5-chloro-4-[2-(difluoromethyl)-4-fluoro-1-(propan-2-yl)-1H-benzimidazol-6-yl]pyrimidin-2-yl}amino)-1-(methanesulfonyl)piperidin-3-ol], the IC50 on CDK4 came out at 101 nM; at CDK6, 238 nM. Also, the Ki at CDK4/Cyclin D1 turned out to be 0.7 nM; at CDK6/Cyclin D3, 4.9 nM.
`CC(C)n1c(CN2CC(C)(O)C2)nc2c(F)cc(-c3nc(N[C@@H]4CCOC[C@H]4O)ncc3Cl)cc21` [Example H01, 1,5-anhydro-3-[(5-chloro-4-{4-fluoro-2-[(3-hydroxy-3-methylazetidin-1-yl)methyl]-1-(propan-2-yl)-1H-benzimidazol-6-yl}pyrimidin-2-yl)amino]-2,3-dideoxy-D-threo-pentitol]: the IC50 stood at 137 nM on CDK4 and 858 nM at CDK6. Also, the values for the Ki on CDK4/Cyclin D1 and at CDK6/Cyclin D3 were 2.4 nM and 127 nM, respectively.
In the same order, the values of `COCC(C)n1c(C)nc2c(F)cc(-c3nc(N[C@@H]4CCN(S(C)(=O)=O)C[C@H]4O)ncc3Cl)cc21` (single isomer, unassigned) [Example A73] are 72 nM, 188 nM, 0.9 nM and 16.1 nM.
With `CC1(C)OCCn2nc3c(F)cc(-c4nc(N[C@@H]5CCN(S(C)(=O)=O)C[C@H]5O)ncc4Cl)cc3c21` [Example A26], the IC50 is 12.2 nM at CDK4 and 24.3 nM at CDK6. Moreover, the figures for the Ki at CDK4/Cyclin D1 and on CDK6/Cyclin D3 were 0.2 nM and 4.2 nM, respectively.
The matching figures for `Cc1nc2ccc(-c3cc(N[C@@H]4CCN(S(C)(=O)=O)C[C@H]4O)ncc3Cl)nc2n1C(C)C` [Example D04, (3R,4R)-4-({5-chloro-4-[2-methyl-3-(propan-2-yl)-3H-imidazo[4,5-b]pyridin-5-yl]pyridin-2-yl}amino)-1-(methanesulfonyl)piperidin-3-ol]: 68.2 nM, 172 nM, 0.6 nM and 12.5 nM.
On to `CC(C)n1cnc2c(F)cc(-c3nc(N[C@@H]4CCN(C(=O)C5(F)CNC5)C[C@H]4O)ncc3Cl)cc21` [Example F27, [(3R,4R)-4-({5-chloro-4-[4-fluoro-1-(propan-2-yl)-1H-benzimidazol-6-yl]pyrimidin-2-yl}amino)-3-hydroxypiperidin-1-yl](3-fluoroazetidin-3-yl)methanone], for which the half-maximal inhibitory concentration (IC50) was found to be 60.8 nM on CDK4 and 188 nM at CDK6. Also, the inhibition constant (Ki) at CDK4/Cyclin D1 stood at 0.5 nM; on CDK6/Cyclin D3 it was 5.1 nM.
In the same order, the values of `CC(C)n1c([C@H](C)N)nc2c(F)cc(-c3nc(N[C@@H]4CCOC[C@H]4O)ncc3Cl)cc21` [Example A53, 3-[(4-{2-[(1S)-1-aminoethyl]-4-fluoro-1-(propan-2-yl)-1H-benzimidazol-6-yl}-5-chloropyrimidin-2-yl)amino]-1,5-anhydro-2,3-dideoxy-D-threo-pentitol] are 67.3 nM, 208 nM, 0.6 nM and 16.7 nM.
The matching figures for `C[C@H](O)C(=O)N1CC[C@@H](Nc2ncc(Cl)c(-c3cc(F)c4ncn(C(C)(C)C)c4c3)n2)[C@H](O)C1` [Example F21, (2S)-1-[(3R,4R)-4-{[4-(1-tert-butyl-4-fluoro-1H-benzimidazol-6-yl)-5-chloropyrimidin-2-yl]amino}-3-hydroxypiperidin-1-yl]-2-hydroxypropan-1-one]: 59.5 nM, 246 nM, 0.4 nM and 7.7 nM.
In the same order, the values of `CC(C)n1c(C2COC2)nc2c(F)cc(-c3nc(N[C@@H]4CCN(S(C)(=O)=O)C[C@H]4O)ncc3Cl)cc21` [Example A30] are 51.6 nM, 63.5 nM, 0.2 nM and 4.9 nM.
`COCc1nc2c(F)cc(-c3nc(N[C@@H]4CCN(S(C)(=O)=O)C[C@H]4O)ncc3Cl)cc2n1C(C)C` [Example A75, (3R,4R)-4-({5-chloro-4-[4-fluoro-2-(methoxymethyl)-1-(propan-2-yl)-1H-benzimidazol-6-yl]pyrimidin-2-yl}amino)-1-(methanesulfonyl)piperidin-3-ol]: the IC50 at CDK4 turned out to be 33.2 nM; on CDK6 it was 103 nM. Moreover, the Ki was 0.3 nM on CDK4/Cyclin D1 and 5 nM on CDK6/Cyclin D3.
In the same order, the values of `CC(C)n1c(CC(C)(C)N)nc2c(F)cc(-c3nc(N[C@@H]4CCOC[C@H]4O)ncc3Cl)cc21` [Example A45, 3-({4-[2-(2-amino-2-methylpropyl)-4-fluoro-1-(propan-2-yl)-1H-benzimidazol-6-yl]-5-chloropyrimidin-2-yl}amino)-1,5-anhydro-2,3-dideoxy-D-threo-pentitol] are 65.8 nM, 468 nM, 1 nM and 52 nM.
The matching figures for `Cc1nc2cc(Cl)c(-c3nc(N[C@@H]4CCN(S(C)(=O)=O)C[C@H]4O)ncc3F)cc2n1C(C)C` [Example C01, (3R,4R)-4-({4-[5-chloro-2-methyl-1-(propan-2-yl)-1H-benzimidazol-6-yl]-5-fluoropyrimidin-2-yl}amino)-1-(methanesulfonyl)piperidin-3-ol]: 176 nM, 1380 nM, 5.2 nM and 98.1 nM.
The matching figures for `CC(C)(C)n1cnc2c(F)cc(-c3cc(N[C@@H]4CCN(C(=O)C(F)(F)CN)C[C@H]4O)ncc3Cl)cc21` [Example F32, 3-amino-1-[(3R,4R)-4-{[4-(1-tert-butyl-4-fluoro-1H-benzimidazol-6-yl)-5-chloropyridin-2-yl]amino}-3-hydroxypiperidin-1-yl]-2,2-difluoropropan-1-one]: 172 nM, 628 nM, 0.9 nM and 12.8 nM.
